Results published in patent US20250275968A1, “INHIBITORS OF TAU PROTEINS” (DEUTSCHES ZENTRUM FÜR NEURODEGENERATIVE ERKRANKUNGEN E.V., priority 2022, published 2025).
Where a name gives a salt, the structure may show the parent alone.

Tests used:
2N4R tau aggregates = target: T1, 2N4R tau aggregates (Homo sapiens, UniProt P10636); experiment: Dissolution of preformed 2N4R tau fibrils (ThT fluorescence, TEM); type: biochemical; settings: compounds added to tau fibrils after about 40 h; tau monomer:Compound 1:3 and 1:10
T1 construct: Full-length 2N4R tau was incubated with Osimertinib mesylate
Method: (A) ThT fluorescence curves monitoring tau aggregation. tau fibrillization reached a saturation point within about 40 h, then compounds or buffer (Reference) were added to tau fibrils (tau monomer:Compound mole ratios 1:3 and 1:10). The experiment was performed in duplicate. […] Statistically significant differences were determined by one-way ANOVA with Dunnett's multiple comparison test. Significant differences corresponding to p≤0.0002(***) and p≤0.0001(****) are indicated. […] Scale bars are 500 nm. […] The dotted line corresponds to one standard deviation above the Reference value.
(§1) To prepare the Tau fibril seeds by de novo aggregation, 2N4R Tau at a monomer concentration of 25 μM was diluted in aggregation buffer. The working concentration of TCEP in the aggregation mixture was <25 μM after dilution of the stock. To this mixture, Thioflavin T (ThT) was added to a final concentration of 50 μM. A total volume of 100 μL of the Tau-ThT mixture was incubated in a well of a 96-well microplate (Greiner Bio-one), in the presence of two polytetrafluoroethylene beads. The microplate was subjected to a program implemented in a Tecan Spark plate reader that involved incubating at 37° C., with intervals of double orbital shaking and ThT fluorescence emission measurement. The excitation wavelength for ThT was set as 430 nm and the emission wavelength was 485 nm. Details of this plate reader program were published previously (Reference: Chakraborty, P. et al. Co-factor-free aggregation of tau into seeding-competent RNA-sequestering amyloid fibrils. Nat. Commun. 12, 4231 (2021)). […] The fibril-containing mixture collected from the microplate served as a seeding mixture for the subsequent aggregation assays.
Fibril samples were negative stained using glow discharged 400 mesh carbon-coated copper grids. After staining using a 1% uranyl acetate solution, images were acquired on a Talos L120C transmission electron microscope (Thermo Fisher, Eindhoven, The Netherlands).

15N-labeled 2N4R tau = target: T2, 15N-labeled 2N4R tau (Homo sapiens, UniProt P10636); experiment: SOFAST-HMQC NMR binding to monomeric tau; settings: 18 μM tau, 50 mM sodium phosphate pH 6.8, 16 h at 37° C., spectra at 5° C.
T2 construct: Full-length 2N4R tau was incubated with Osimertinib mesylate
Text: (A) Overlaid spectra of 2N4R tau with (black) and without (grey) a 100-fold molar excess of Osimertinib mesylate.
To obtain residue-specific information about the interaction between Tau and the compounds, ^1H-^15N correlation spectra of 2N4R Tau were monitored over the course of a titration with increasing amounts of compound. The ^1H-^15N SOFAST-HMQC (Reference: Schanda, P., Kupce, E. & Brutscher, B. SOFAST-HMQC experiments for recording two-dimensional heteronuclear correlation spectra of proteins within a few seconds. J. Biomol. NMR 33, 199-211 (2005)) spectra of [U-^15N]-Tau were acquired at 5° C. on a Bruker 800 MHz spectrometer equipped with a triple-resonance cryoprobe. Tau samples (18-25 μM) were prepared in NMR buffer containing 10% (v/v) D2O, and with compound concentrations that corresponded to Tau:compound mole ratios of 1:10 and 1:100. All NMR samples were incubated overnight (˜16 h) at 37° C. prior to spectral acquisition. Tau amide assignments were taken from a previous study (Reference: Mukrasch, M. et al. Structural polymorphism of 441-residue tau at single residue resolution. PLoS Biol. 7, e34 (2009)). However, because previous assignments were obtained using a Tau sample prepared in the presence of reducing agents, some amide resonances belonging to the repeat region of Tau (close to C291 and C322) were not unambiguously transferred to the SOFAST-HMQC spectra acquired under oxidizing conditions. Therefore, to obtain nearly complete backbone assignments in the repeat region, 3D HNCA, 3D HNCOCA, and 3D CBCACONH spectra were recorded for a [U-^13C,^15N]-4R Tau (K18 construct) sample prepared under the same buffer condition. The weighted, normalized chemical shift perturbations (CSP) were calculated as CSP=√[0.5 [(Δδ H)^2+(Δδ N)^2/25]. NMR signal intensity ratios, I/I0 (where I is the peak intensity of Tau amide backbone resonances in the presence of the compounds, and I0 is the peak intensity in the absence of the compounds), were calculated for each titration point.

2N4R Tau fibrils = target: T3, 2N4R Tau fibrils (Homo sapiens, UniProt P10636); experiment: Saturation transfer difference (STD) NMR with tau fibrils; type: binding; settings: 48-fold excess of compound, 100 mM NaCl, 2.5% (v/v) DMSO, pH 6.8, 37° C.
T3 construct: Full-length 2N4R tau was incubated with Osimertinib mesylate
Method: 2N4R Tau fibrils were prepared using the aggregation procedure described in the section in vitro assay 1 without Thioflavin T. The mole ratio of “free” compound to fibrils was 48:1 (corresponding to a total compound concentration of 250 μM and a total fibril concentration of 5 μM Tau). The NMR samples were prepared in 50 mM sodium phosphate with 100 mM NaCl and 2.5% (v/v) DMSO at pH 6.8. The spectra were recorded at 37° C. using a Bruker 700 MHz spectrometer equipped with a triple resonance cryoprobe. 1D ^1H-NMR STD spectra were acquired in an interleaved manner, alternating between off-resonance irradiation at 60 ppm and on-resonance irradiation at −2 ppm.

[1] = test system: HEK293T biosensor cells expressing the human tau repeat domain (RD) harboring the P301L/V337M mutation (TauRD^LM-GFP); experiment: HEK biosensor cell tau seeding assay; type: cell-based; settings: for compound concentration up to which total amount of cells remained close to 100% (low toxicity): HEK biosensor cells, relative to vehicle (DMSO)
Method: Compound stock solutions were prepared as 10 mM compound in DMSO.
HEK293T biosensor cells expressing the human tau repeat domain (RD) harboring the P301L/V337M mutation and fused to a C-terminal GFP tag (named TauRD^LM-GFP) were engineered to probe Tau seeding in cellula (Reference: Liu, S., Hossinger, A., Heumüller, S E. et al. Highly efficient intercellular spreading of protein misfolding mediated by viral ligand-receptor interactions. Nat Commun 12, 5739 (2021). https://doi.org/10.1038/s41467-021-25855-2). HEK cells expressing the P301L human full-length Tau, C-terminally tagged with GFP were incubated with pre-sonicated hTau40^P301L fibrils to induce Tau aggregate formation. Cells were harvested and the resulting cell lysate was used to seed Tau aggregation in further experiments with HEK TauRD^LM-GFP cells.
In a typical seeded assay, HEK cells were incubated with cell lysate, compounds (0-40 μM) and lipofectamine for 22-48 hours. Negative control experiments in the absence of compounds (only with vehicle DMSO) and in the presence of cell lysate were performed in parallel.
Dose response curves were constructed by quantifying the number of cells with aggregates for each compound concentration. The curves were fitted with a sigmoid function using Graphpad PRISM version 8. The inhibitory concentration at 50% activity (IC50) was determined for each compound.

[2] = test system: tau-induced degeneration of Drosophila eyes (GMR-Gal4/WT tau); experiment: Drosophila neurodegeneration model (eye degeneration); type: in vivo; settings: GMR-Gal4/WT tau flies treated in food from larvae stage to adult stage
Method: Stock solutions of individual compounds were prepared by dissolving 10 mg of the compound in 100 μl of 100% DMSO. Osimertinib, Osimertinib mesylate and AZ7550 mesylate were orally fed to the flies by mixing them with food. The final concentration of each compound, which was used for treating the Drosophila, was derived on the basis of recommended concentrations for human use (reference concentration) based on body weight.
We have used three concentrations for each compound. One was equal to the reference concentration, and two were higher than the reference concentration. Final concentrations of different compounds mixed with fly food are: Osimertinib mesylate, […]; Osimertinib, […]; AZ 7550 mesylate, 10 µM and 20 µM. After hatching, first instar larvae were transferred onto the food containing one of the compounds. Food mixed with drug at required concentration was replaced with fresh food every 48 h.
Light microscopy was performed after mounting the fly heads on the glass slide using a double-sided adhesive tape. Full-eye images were captured with the help of an Infinity Analyze camera attached to an Olympus SZX7 microscope with a halogen light source. Total eye surface area and degenerated eye surface area were marked and calculated with Infinity Analyze software (Lumenera corporation). Percentage of degenerated area was calculated and plotted using GraphPad Prism 8.
After the eclosion, treated and control flies (2-3 days old) were fixed in 1% formaldehyde for two hours, followed by serial dehydration steps of 12 hrs each in 25%, 50%, 75% and 100% ethanol were carried out. Flies were stored in 100% ethanol and dried with CPD before mounting on the stab for imaging. Eye Images were captured at 150× and analyzed using Infinity Analyze software.

2N4R tau = target: T4, 2N4R tau (Homo sapiens, UniProt P10636); experiment: In vitro seeded aggregation/fibrillization assay of 2N4R tau (ThT fluorescence); type: biochemical
T4 construct: Full-length 2N4R tau was incubated with Osimertinib mesylate
Method: Aggregation of 2N4R Tau was performed using a previously published co-factor-free aggregation protocol, with a few modifications (Reference: Chakraborty, P. et al. Co-factor-free aggregation of tau into seeding-competent RNA-sequestering amyloid fibrils. Nat. Commun. 12, 4231 (2021)). Aggregation experiments used the Tau protein stock prepared in 25 mM HEPES pH 7.4, 1 mM TCEP. Stocks of compounds were prepared in aggregation buffer (25 mM HEPES, 10 mM KCl, 5 mM MgCl2, pH 7.2) or in DMSO (10 mM compound).
as §1
Seeded aggregation assays were performed as described above but with 1.0% of the well volume occupied by the seeding mixture sonicated for 1 minute. The assays were performed in the presence and absence of compounds, and working concentrations ranged from 0-250 μM compound.
Analyses of the fluorescence curves were performed using Graphpad PRISM version 8. Fluorescence data were fit to a sigmoid function. The number of hours corresponding to half-maximal ThT Fluorescence™ as well as the span of fluorescence intensity (Span) were determined for each sigmoid curve. Statistically significant differences were determined by one-way ANOVA analysis with Dunnett's multiple comparison test or unpaired t-test.

tau(244-372, 13818 Da) = target: T5, tau(244-372, 13818 Da) (Homo sapiens, UniProt P10636); experiment: ESI-MS covalent modification of tau; type: binding
T5 construct: comprising residues 244-372 of 2N4R Tau
Method: This analysis was performed using the 4R Tau construct (K18 construct, 13818 Da) comprising residues 244-372 of 2N4R Tau. Compounds (330 μM) were incubated with 4R Tau (65 μM) for 16 h at 37° C. in 10 mM ammonium bicarbonate at pH 7.0. The compound/4R Tau mixtures were injected into an LC system (ACQUITY) coupled to a single quadrupole mass detection system (SQ Detector 2, Waters) with diode-array detectors (DAD). The DAD spectrum covers wavelengths of 210-400 nm. Components of the compound-4R Tau mixture were separated using a BioResolve RP mAb column (Waters) with a gradient of 5-95% buffer B (buffer A is 0.1% TFA in water and buffer B is 0.1% TFA in acetonitrile). Covalent modification of 4R Tau corresponded to mass additions of 500 Da (Osimertinib) and 486 Da (AZ7550 or AZ5104).

T4 sequence (P10636 1-441 isoform P10636-8): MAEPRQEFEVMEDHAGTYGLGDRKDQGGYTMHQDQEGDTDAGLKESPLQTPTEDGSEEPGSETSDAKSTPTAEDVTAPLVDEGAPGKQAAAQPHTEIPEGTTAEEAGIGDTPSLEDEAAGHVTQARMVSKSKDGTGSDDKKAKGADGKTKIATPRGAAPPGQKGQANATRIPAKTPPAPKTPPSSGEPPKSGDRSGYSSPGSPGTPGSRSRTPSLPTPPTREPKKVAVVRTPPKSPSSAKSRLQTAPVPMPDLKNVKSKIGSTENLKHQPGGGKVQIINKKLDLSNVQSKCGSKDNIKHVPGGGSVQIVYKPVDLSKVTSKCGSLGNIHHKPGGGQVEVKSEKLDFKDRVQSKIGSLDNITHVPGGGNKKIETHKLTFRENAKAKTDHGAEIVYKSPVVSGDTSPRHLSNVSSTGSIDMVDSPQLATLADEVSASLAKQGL
T5 sequence (P10636 561-689): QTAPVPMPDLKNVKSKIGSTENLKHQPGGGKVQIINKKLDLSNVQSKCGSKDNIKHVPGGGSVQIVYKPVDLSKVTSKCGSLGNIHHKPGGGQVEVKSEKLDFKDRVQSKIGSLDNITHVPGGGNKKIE
T2 sequence (P10636 1-441 isoform P10636-8): as the sequence (P10636 1-441 isoform P10636-8) above
T1 sequence (P10636 1-441 isoform P10636-8): as above
T3 sequence (P10636 1-441 isoform P10636-8): as above

SMILES: C=CC(=O)Nc1cc(Nc2nccc(-c3cn(C)c4ccccc34)n2)c(OC)cc1N(C)CCNC [AZ7550 hydrochloride, N-[4-methoxy-5-[4-(1-methyl-1H-indol-3-yl)-2-pyrimidinyl]amino]-2-[methyl[2-(methylamino)ethyl]amino]phenyl]-2-Propenamide hydrochloride]
- dissolution of 2N4R tau aggregates (reduction of ThT fluorescence intensity) (2N4R tau aggregates): partially dissolve
- binding to tau (NMR spectroscopy) (15N-labeled 2N4R tau): reveals binding
- STD effect with tau fibrils (fibril binding epitopes) (2N4R Tau fibrils): Protons showing STD effects
- compound concentration up to which total amount of cells remained close to 100% (low toxicity) [1]: about 5.0 μM

SMILES: C=CC(=O)Nc1cc(Nc2nccc(-c3cn(C)c4ccccc34)n2)c(OC)cc1N(C)CCNC [AZ7550 mesylate, N-[4-methoxy-5-[[4-(1-methyl-1H-indol-3-yl)-2-pyrimidinyl]amino]-2-[methyl[2-(methylamino)ethyl]amino]phenyl]-2-Propenamide]
- tau-induced degeneration of Drosophila eyes (percent degeneration, light microscopy) [2]: rescue tau-induced degeneration of Drosophila eyes

SMILES: C=CC(=O)Nc1cc(Nc2nccc(-c3cn(C)c4ccccc34)n2)c(OC)cc1N(C)CCNC [Compound 2]
- In vitro seeded aggregation/fibrillization of full-length tau (ThT fluorescence curves) (2N4R tau; 2N4R tau, various formulations): inhibited in a dose-dependent manner
- covalent modification of cysteines in tau (ESI-MS) (tau(244-372, 13818 Da)): confirms covalent modification of cysteines

SMILES: C=CC(=O)Nc1cc(Nc2cc(-c3cn(C)c4ccccc34)nc(OC)n2)c(OC)cc1N(C)CCN(C)C [Compound 9]
- compound concentration up to which total amount of cells remained close to 100% (low toxicity) [1]: about 4.0 μM

SMILES: C=CC(=O)Nc1cc(COc2cc(-c3cn(C)c4ccccc34)ccn2)ccc1N1CCCC1 [Compound 31]
- efficacy of aggregation delay compared to Compound 1 (2N4R tau; 1:3 Tau:compound mole ratio, 2.5% (v/v) DMSO): notably more efficacious
- normalized Tm, extent of aggregation delay (2N4R tau; 1:3 Tau:compound mole ratio, 2.5% (v/v) DMSO, at least 3 replicates): significant delay of aggregation

SMILES: O=C(O[C@@H]1Cc2c(O)cc(O)cc2O[C@@H]1c1cc(O)c(O)c(O)c1)c1cc(O)c(O)c(O)c1 [EGCG]
- inhibitory activity toward the aggregation of tau in HEK biosensor cells (number of cells with aggregates relative to DMSO) ([1]; control compounds compared with Osimertinib, compound 2 and compound 3): much lower inhibitory activity
